Test results from patent US4503068A, “Use of prostaglandin analogues to treat cytodamage” (priority 1982, dated 1985).
Read-outs that look alike come from different tables or passages of the source.

How the values were obtained:
[1] = tested on: carbon tetrachloride (CCl4) induced liver damage; test: Effect on carbon tetrachloride (CCl4) induced liver damage (liver cell necrosis type); type: in vivo, Male Wistar rats; conditions: Rattus norvegicus; for inhibition in vivo at 1 mg/kg: 1000 μg/kg 6 and 12 hr after CCl4; for inhibition in vivo at 0.5 mg/kg: 500 μg/kg 6 and 12 hr after CCl4; for inhibition in vivo at 0.05 mg/kg: 50 μg/kg 6 and 12 hr after CCl4; for inhibition in vivo at 0.1 mg/kg: 100 μg/kg 6 and 12 hr after CCl4; for inhibition in vivo at 0.02 mg/kg: 20 μg/kg 6 and 12 hr after CCl4; for inhibition in vivo at 2 mg/kg: 2000 μg/kg 6 and 12 hr after CCl4
Description: Effect on carbon tetrachloride (CCl4) induced liver damage (liver cell necrosis type)
Male Wistar rats weighing 180-220 g were used. Rats were dosed intraperitoneally with CCl4 dissolved in olive oil (5% w/v) at a volume of 500 μl/kg after 18 hr starvation. The compound under test was administered orally (p.o.) or subcutaneously (s.c.) 6 and 12 hr after CCl4 injection in rats and blood was collected after 24 hr. Plasma glutamic oxaloacetic transaminase (GOT) and glutamic pyruvic transaminase (GPT) activities were determined by ultraviolet absorbance methods (optimised method based on the recommendations of the Deutsche Gesellschaft f/u/ r Klinische Chemie). The effects of the compounds tested were assessed by the inhibition rate in comparison with controls. Inhibition rate was calculated by the following formula. [formula]
(§1) In Tables 1 to 4 hereinafter the dose shown is the amount given at each administration of the compound under test.

[2] = tested on: α-naphthylisothiocyanate-induced liver damage; test: Effect on α-naphthylisothiocyanate-induced liver damage (cholangioatresia type); type: in vivo, Male Wistar rats; conditions: p.o., blood after 24 hr
Description: as §1
Effect on α-naphthylisothiocyanate-induced liver damage (cholangioatresia type)
Male Wistar rats weighing 190-220 g were used. After rats had fasted for 18 hr, α-naphthylisothiocyanate (ANIT) dissolved in olive oil (1.5% w/v) was given orally to them at 30 mg/kg body weight. The compound under test was administered orally 30 min before and 6 and 12 hr after administration of ANIT and blood was collected after 24 hr. Plasma GOT, GPT and bilirubin activities were determined and the results given in Table 3 show the inhibition rate compared with controls (calculation by the formula shown in Experiment 1).

[3] = tested on: D(+)-galactosamine hydrochloride-induced liver damage; test: Effect on D(+)-galactosamine hydrochloride-induced liver damage (hepatitis type); type: in vivo, Male Wistar rats; conditions: p.o.
Description: as §1
Effect on D(+)-galactosamine hydrochloride-induced liver damage (hepatitis type)
Male Wistar rats weighing 180-200 g were used. After the rats had fasted for 18 hr, 375 mg/kg galactosamine hydrochloride was administered to them intraperitoneally two times at 6 hr intervals. The compound under test was administered orally, 30 minutes before and, 6, 12 and 24 hr after the dose of D(+)-galactosamine hydrochloride and blood was collected after 24 and 48 hr. Plasma GOT and GPT activities were determined in the manner described in Experiment 1; plasma bilirubin activities were also determined. The effects were shown by the inhibition rate compared with controls (calculation by the formula shown in Experiment 1).

in vivo = conditions: mouse, mice, oral, observed for 14 days
Description: Male JCL-ICR mice (non SPF mice) from 7 weeks of age were used. The compound under test was dissolved in 5% v/v ethanol containing 0.4% w/v Tween 80 (Tween is a registered trademark) and administered orally to the mice.

[4] = tested on: endotoxin-induced lung injury; conditions: sheep; cited from earlier work
[5] = tested on: isolate perfused cat liver; conditions: cited from earlier work
endotoxin shock = conditions: dog; cited from earlier work
[6] = tested on: ischemic myocardial tissue; conditions: cat; cited from earlier work
[7] = tested on: diet-induced acute pancreatitis; conditions: mice; cited from earlier work
[8] = tested on: carbon tetrachloride-induced liver cell necrosis; conditions: in vivo; cited from earlier work
[9] = tested on: acute galactosamine-induced liver damage; conditions: in vivo; cited from earlier work
[10] = sc, plasma GOT after 24 hr, read-out: inhibition rate, GOT
[11] = sc, plasma GPT after 24 hr, read-out: inhibition rate, GPT
[12] = po, plasma GOT after 24 hr, read-out: inhibition rate, GOT
[13] = po, plasma GPT after 24 hr, read-out: inhibition rate, GPT

## O=C(CO)CCCC[C@H]1C[C@@H]2[C@@H](/C=C/[C@@H](O)C3CCCC3)[C@H](O)C[C@@H]2O1 [Compound 10, 2-decarboxy-2-glycoloyl-15-cyclopentyl-16,17,18,19,20-pentanor-6S-PGI]
[1]; [10]
  inhibition in vivo at 1 mg/kg: 11.8%
[1]; [11]
  inhibition in vivo at 1 mg/kg: 0%

## CCCC1CCC(C(O)/C=C/[C@@H]2[C@H]3CC(CCCCCO)=N[C@H]3C[C@H]2O)C1 (single isomer, unassigned) [Compound 13, 15-(3-propylcyclopentyl)-16,17,18,19,20-pentanor-6,9α-nitrilo-PGI1 alcohol]
[1]; [12]
  inhibition in vivo at 1 mg/kg: 53.6%
[1]; [13]
  inhibition in vivo at 1 mg/kg: 58.2%

## CCCC[C@H](C)C[C@H](O)/C=C/[C@@H]1[C@H]2C[C@H](CCCCC(=O)OC)O[C@H]2C[C@H]1O [Compound 6, 17S,20-dimethyl-6S-PGI1 methyl ester]
[1]; [10]
  inhibition in vivo at 0.5 mg/kg: 55.3%
[1]; [11]
  inhibition in vivo at 0.5 mg/kg: 64.6%
[2]; 2000 μg/kg per administration
  inhibition, GOT: 40.9%
  inhibition, GPT: 44.6%
  inhibition, bilirubin: 33.3%
[3]; 2000 μg/kg per administration
  inhibition rate, GOT 24 hr after: 50.2%
  inhibition rate, GPT 24 hr after: 37.8%
  inhibition rate, bilirubin 24 hr after: 31.8%
  inhibition rate, GOT 48 hr after: 25.5%
  inhibition rate, GPT 48 hr after: 21.4%
  inhibition rate, bilirubin 48 hr after: 19.2%
In vivo
  LD50 at 336 h: > 50 mg/kg

## CCCC[C@H](C)C[C@H](O)/C=C/[C@@H]1[C@H]2C[C@H](CCCCCO)O[C@H]2C[C@H]1O [Compound 11, 17S,20-dimethyl-6S-PGI1 alcohol]
[1]; [10]
  inhibition in vivo at 0.5 mg/kg: 73.3%
[1]; [11]
  inhibition in vivo at 0.5 mg/kg: 65.2%
In vivo
  LD50 at 336 h: > 50 mg/kg

## CCCC[C@H](C)C[C@H](O)/C=C/[C@@H]1[C@H]2CC(CCCCC(=O)OC)=N[C@H]2C[C@H]1O [Compound 8, 17S,20-dimethyl-6,9α-nitrilo-PGI1 methyl ester]
[1]; [12]
  inhibition in vivo at 1 mg/kg: 41.1%
[1]; [13]
  inhibition in vivo at 1 mg/kg: 14.5%
[1]; [10]
  inhibition in vivo at 0.5 mg/kg: 65.6%
[1]; [11]
  inhibition in vivo at 0.5 mg/kg: 58.6%
[2]; 1000 μg/kg per administration
  inhibition, GOT: 68.7%
  inhibition, GPT: 76.1%
  inhibition, bilirubin: 45.8%
[3]; 1000 μg/kg per administration
  inhibition rate, GOT 24 hr after: 40.2%
  inhibition rate, GPT 24 hr after: 32.6%
  inhibition rate, bilirubin 24 hr after: 12.1%
  inhibition rate, GOT 48 hr after: 57.2%
  inhibition rate, GPT 48 hr after: 47.6%
  inhibition rate, bilirubin 48 hr after: 11.5%
In vivo
  LD50 at 336 h: 40 to 100 mg/kg

## CCCC[C@H](C)C[C@H](O)/C=C/[C@H]1[C@H](O)CC(=O)[C@@H]1CC(=O)CCCCCO [Compound 5, 17S,20-dimethyl-6-oxo-PGE1 alcohol]
[1]; [12]
  inhibition in vivo at 0.05 mg/kg: 56.6%
[1]; [13]
  inhibition in vivo at 0.05 mg/kg: 59.1%
[2]; 100 μg/kg per administration
  inhibition, GOT: 54.1%
  inhibition, GPT: 53.1%
  inhibition, bilirubin: 41.7%
In vivo
  LD50 at 336 h: > 10 mg/kg

## CCCC[C@H](C)C[C@H](O)/C=C/[C@@H]1[C@H]2CC(CC/C=C/C(=O)OC)O[C@H]2C[C@H]1O (stereo partly drawn) [Compound 7, 17S,20-dimethyl-trans-Δ^2-6RS-PGI1 methyl ester]
[1]; [12]
  inhibition in vivo at 1 mg/kg: 58%
[1]; [13]
  inhibition in vivo at 1 mg/kg: 42.7%

## CCCC[C@H](C)[C@H](O)/C=C/[C@H]1[C@H](O)CC(=O)[C@@H]1CC(=O)CCCCC(=O)OC [Compound 1, 16S-methyl-6-oxo-PGE1 methyl ester]
[1]; [12]
  inhibition in vivo at 0.1 mg/kg: 59.9%
[1]; [13]
  inhibition in vivo at 0.1 mg/kg: 53.5%
[1]; [10]
  inhibition in vivo at 0.02 mg/kg: 27.8%
[1]; [11]
  inhibition in vivo at 0.02 mg/kg: 16.3%

## CCCC[C@H](C)C[C@H](O)CC[C@H]1[C@H](O)CC(=O)[C@@H]1CC(=O)CCCCC(=O)OC [Compound 4, 17S,20-dimethyl-13,14-dihydro-6-oxo-PGE1 methyl ester]
[1]; [12]
  inhibition in vivo at 0.1 mg/kg: 52.1%
[1]; [13]
  inhibition in vivo at 0.1 mg/kg: 62.3%
In vivo
  LD50 at 336 h: > 10 mg/kg

## CCCCC[C@H](O)/C=C/[C@@H]1[C@H]2C/C(=C/CCCC(=O)O)O[C@H]2C[C@H]1O [PGI2, (5Z,13E)-(9α,11α,15S)-6,9-epoxy-11,15-dihydroxyprosta-5,13-dienoic acid]
[4]
  effect on endotoxin-induced lung injury: prevents and is useful in treating
[5]
  effect on hypoxia in the isolate perfused cat liver: prevents and is useful in treating
Endotoxin shock
  effect on endotoxin shock: prevents and is useful in treating
[6]
  effect on ischemic myocardial tissue: prevents and is useful in treating

## CCCCC[C@](C)(O)/C=C/[C@H]1[C@H](O)CC(=O)[C@@H]1CC(=O)CCCCC(=O)O [Compound 3, 15S-methyl-6-oxo-PGE1]
[1]; [12]
  inhibition in vivo at 0.1 mg/kg: 6.8%
[1]; [13]
  inhibition in vivo at 0.1 mg/kg: 13.2%

## OCCCCC[C@H]1C[C@@H]2[C@@H](/C=C/[C@@H](O)C3CCCC3)[C@H](O)C[C@@H]2O1 [Compound 12, 15-cyclopentyl-16,17,18,19,20-pentanor-6S-PGI1 alcohol]
[1]; [12]
  inhibition in vivo at 2 mg/kg: 7.4%
[1]; [13]
  inhibition in vivo at 2 mg/kg: 44.1%

## CCCC[C@H](C)C[C@H](O)/C=C/[C@@H]1[C@H]2C[C@H](CCCCC(=O)CO)O[C@H]2C[C@H]1O [Compound 9, 2-decarboxy-2-glycoloyl-17S,20-dimethyl-6S-PGI1]
[1]; [10]
  inhibition in vivo at 0.5 mg/kg: 58.4%
[1]; [11]
  inhibition in vivo at 0.5 mg/kg: 51.4%
In vivo
  LD50 at 336 h: > 50 mg/kg

## CCCC[C@H](C)C[C@H](O)/C=C/[C@H]1[C@H](O)CC(=O)[C@@H]1CC(=O)CCCCC(=O)OC [Compound 2, 17S,20-dimethyl-6-oxo-PGE1 methyl ester]
[1]; [12]
  inhibition in vivo at 0.05 mg/kg: 61.5%
[1]; [13]
  inhibition in vivo at 0.05 mg/kg: 44.1%
[1]; [10]
  inhibition in vivo at 0.02 mg/kg: 37.9%
[1]; [11]
  inhibition in vivo at 0.02 mg/kg: 34.6%
[2]; 100 μg/kg per administration
  inhibition, GOT: 39.6%
  inhibition, GPT: 41.9%
  inhibition, bilirubin: 37.5%
[3]; 100 μg/kg per administration
  inhibition rate, GOT 24 hr after: 29.5%
  inhibition rate, GPT 24 hr after: 6.7%
  inhibition rate, bilirubin 24 hr after: 24.2%
  inhibition rate, GOT 48 hr after: 32.7%
  inhibition rate, GPT 48 hr after: 23.5%
  inhibition rate, bilirubin 48 hr after: 34.6%

## CCCCC[C@H](O)/C=C/[C@H]1[C@H](O)CC(=O)[C@@H]1C/C=C\CCCC(=O)O [PGE2]
[7]
  effect against diet-induced acute pancreatitis: effective

## CCCCC(C)(C)[C@H](O)/C=C/[C@H]1[C@H](O)CC(=O)[C@@H]1C/C=C\CCCC(=O)O [16,16-dimethyl-PGE2]
[8]
  prevention of carbon tetrachloride-induced liver cell necrosis: prevents
[9]
  prevention of acute galactosamine-induced liver damage: prevents
